One assay relates to E. coli MS 200-1. The experiment in a line: Growth-based phenotypic high-throughput screen (OD600 Z-scores, choline vs glycerol NCE medium). It is filed as cell-based, Escherichia coli MS 200-1. Particulars: 20 µg/mL; for Z-score from HTS, Zcho at T1 / Z-score from HTS, Zcho at T2: choline NCE medium; for Z-score from HTS, Zcho at T1 / Z-score from HTS, Zgly at T1: 7 h; for Z-score from HTS, Zcho at T2 / Z-score from HTS, Zgly at T2: 20 h; for Z-score from HTS, Zgly at T1 / Z-score from HTS, Zgly at T2: glycerol NCE medium. The method, then:
The primary screen was performed in duplicate using the ChemDiv7 commercial library from the Institute of Chemistry and Cell Biology–Longwood (ICCB-L) Screening Facility, consisting of 49,128 compounds (Fig. 1D). Each compound was tested at a concentration of 20 µg/mL.
NCE media was adapted based on the “no carbon E” media as previously described ([14]), and contains 29 mM potassium phosphate monobasic, 29 mM potassium phosphate dibasic, 17 mM ammonium sodium phosphate dibasic, 40 mM sodium fumarate dibasic, 0.1% (wt/vol) casamino acids, and either 20 mM choline chloride or 3 g/L glycerol. This mixture was supplemented with 1 mM magnesium sulfate, 1% ATCC vitamin supplement, and 1% ATCC trace mineral supplement.
Compounds from the Institute of Chemistry and Cell Biology-Longwood Screening Facility (ICCB-L) commercial ChemDiv7 library were transferred to 384-well plates at 5 mg/mL in DMSO.
E. coli was grown anaerobically in LB media containing 1 mM choline chloride overnight at 37°C and then resuspended (two log-fold dilution) in either NCE media supplemented with 20 mM choline or 3 g/L glycerol for screening. The E. coli cultures were then added to the compound plates and incubated at 37°C anaerobically. The final concentration of compounds in culture was 20 µg/mL. OD600 was measured at 7 h and 20 h in duplicate compound plates. For control, 60 µg/mL kanamycin was used. Z-scores of each compound were calculated by measuring the number of standard deviations of each well’s OD600 with respect to the plate’s mean OD600. Compounds with a Z-score of less than –2 on choline but more than or equal to 0 on glycerol, in at least one replicate plate, were selected for further validation. Z’ was calculated using the control columns, as an internal quality control.

The subject of assay [1] is germ-free C57BL/6 mice colonized with defined community incl. E. coli MS 200-1. In words: Serum TMAO in gnotobiotic mice after inhibitor treatment. In kind it is in vivo, Mus musculus C57BL/6. The method, then: One milliliter of culture from each of the six individually grown strains was added to create this mixed culture. In a biosafety cabinet, a 300 mg/mL stock of sterile inhibitor in filter-sterilized DMSO was prepared. After this preparation, a working solution of 3 mg/mL of the inhibitor stock in sterile 1% hydroxyethyl cellulose/1% polysorbate 80 was prepared within 4 days of gavaging the mice and stored at room temperature. A low dose of the inhibitor was also prepared, using a working solution of 0.3 mg/mL of the inhibitor stock in sterile 1% hydroxyethyl cellulose/1% polysorbate 80. The vehicle was prepared in the same way with DMSO without inhibitor. […] Two weeks after colonization, mice were administrated by gavage with 3 mg/kg of the inhibitor or vehicle between 6 and 8 a.m. once a day for three consecutive days. After a 10-day washout period, mice were orally administered 30 mg/kg of the inhibitor once a day (same time as above) for three consecutive days, and blood was collected 24 h after the last gavage. A fecal sample was collected before the first gavage. At sacrifice, tissues collected were blood, cecal contents, a fecal pellet, proximal colon, distal small intestine, liver, and kidney. Mice were anesthetized with isoflurane and underwent cardiac puncture for a terminal blood draw, followed by cervical dislocation. Tissues were snap-frozen in liquid nitrogen. Blood was spun down at 8,000 × g for 8 min at room temperature; the resulting serum layer was removed and snap-frozen. All snap-frozen tissues were stored at -80°C until needed. One volume of plasma and 4 volumes of ice-cold extraction solution (HPLC-grade methanol with 2.5 μM d9-TMAO internal standard) were combined and spun at 21,100 × g for 3 min at 4°C. One volume of the resulting supernatant was then mixed with 1 volume of HPLC-grade water. […] was used for peak quantification, and internal standards were utilized as a comparison to calculate plasma concentrations. Statistical significance was calculated using an unpaired t-test.

The mark [2] stands for this setting: first value of cell (replicate plate).
[3] abbreviates: second value of cell (replicate plate).

`Cc1ccc(-c2cc(C(=O)NCCCN3CCc4ccccc4C3)c(C)[nH]2)cc1C` [Compound 5]: in the assay with E. coli MS 200-1 (setting [2]), the “Z-score from HTS, Zcho at T1” value is listed as −4.27; the “Z-score from HTS, Zcho at T2” value worked out at 0.16; the “Z-score from HTS, Zgly at T1” value is recorded as −1.42; the “Z-score from HTS, Zgly at T2” value stood at 0.83. In the assay on E. coli MS 200-1 (setting [3]), the “Z-score from HTS, Zcho at T1” value is recorded as “–4.23”; the “Z-score from HTS, Zcho at T2” value is given as “–0.06”; the “Z-score from HTS, Zgly at T1” value is on record as 0.61; the “Z-score from HTS, Zgly at T2” value stood at 1.41.

As for `Cc1ccc(-c2cc(C(=O)NCCCCCN3CCCCCC3)c(C)[nH]2)cc1C` [Compound 45], the “Serum TMAO level relative to vehicle treatment” value in assay [1] (gnotobiotic mice, 30 mg/kg oral gavage daily for 3 days, 1% choline diet, 24 h after last dose, P = 0.054) was “about 60 % of vehicle treatment”. Moreover, the “Decrease of serum TMAO levels” value in assay [1] (gnotobiotic mice, 30 mg/kg, n = 8, P = 0.054) is ~ 40%. Besides, the “Decrease of TMAO levels compared to vehicle treatment” value in assay [1] (in vivo, mouse model not given) was “approximately 40%”.
